# In patent publication US20110097274A1, “Carbon-11 and fluorine-18 labeled radioligands for positron emission tomography (PET) imaging for the brain serotonin transporters” (priority 2002, published 2011):
# Several values for one entry are separate records, joined by “and”; a condition that tells them apart may be missing. Equal entries are not always repeated.
# Test system: SERT
# Test: Baboon PET imaging: brain uptake, kinetic analysis and SERT parameters
# Assay type: in vivo
# Experimental: PET imaging protocol: PET experiments (n=20) were performed at Columbia University. Two adult male baboons (baboon A and B) were studied twice with each of the 5 radioligands (4 experiments per radioligand). All experiments took place within a 9-month period. Baboons A and B were 31 kg and 21 kg in weight at the beginning of the experimental period and 28 and 22 kg at the end, respectively. Test and retest experiments with the same radioligand were obtained on different days, with an average interval of 117±53 days.
# Experiments were performed according to protocols approved by the Columbia-Presbyterian Medical Center Institutional Animal Care and Use Committee. Fasted animals were immobilized with ketamine (10 mg/kg i.m.), and anesthetized with 1.8% isoflurane via an endotracheal tube. Vital signs were monitored every 10 minutes and the temperature was kept constant at 37° C. with heated water blankets. An i.v. perfusion line was used for hydration and injection of radioligands and nonradioactive drugs. A catheter was inserted in a femoral artery for arterial blood sampling. Head was positioned at the center of the field of view as defined by imbedded laser lines. PET imaging was performed with the ECAT EXACT HR+PET scanner (Siemens/CTI, Knoxville, Tenn.). In 3D mode, this camera provides an in-plane resolution of 4.3 mm, 4.5 mm, 5.4 mm and 8.0 mm full width at half maximum (FWHM) at a distance of 0, 1, 10 and 20 cm from the center of the field of view, respectively (Brix et al., 1997). A 15 minute transmission scan was obtained prior to radioligand injection for attenuation correction. Activity was injected i.v. over 30 seconds. […] Emission data was collected in the 3D mode for 91 minutes as 21 successive frames of increasing duration (6*10 seconds, 2*1 minutes, 4*2 minutes, 2*5 minutes, and 7*10 minutes).
# Image analysis: A Magnetic Resonance Image (MRI) of each baboon's brain was obtained for the purpose of identifying the regions of interest (ROI) (T1-weighted axial MRI sequence, acquired parallel to the anterior-posterior commissure, TR 34 msec, TE 5 msec, flip angle of 45 degrees, slice thickness is 1.5 mm, zero gap, matrix 1.5 mm×1 mm×1 mm voxels). The following regions were drawn on the MR images: cerebellum, midbrain, thalamus, striatum, hippocampus, temporal cortex, cingulate cortex and occipital cortex.
# PET emission data were attenuation-corrected using the transmission scan, and frames were reconstructed using a Shepp filter (cutoff 0.5 cycles/projection rays). Reconstructed image files were then processed using the image analysis software MEDx (Sensor Systems, Inc., Sterling, Va.). An image was created by summing all the frames, and this summed image was used to define the registration parameters with the MR image, using between-modality automated image registration (AIR) algorithm (Woods et al., 1993). Registration parameters were then applied to the individual frames for registration to the MR data set. Regional boundaries were transferred to the individual registered PET frames, and time-activity curves were measured and decay-corrected. Right and left regions were averaged. For a given animal, the same regions were used for all radioligands.
# Brain uptake: Total brain uptake was expressed as percentage of the injected dose per gram of tissue (% ID g^−1) in a region encompassing the entire brain. Regional peak time was defined as the mid-time of the frame associated with the highest activity value. To estimate the degree of wash-out from the brain captured during the scan interval (91 minutes), the decrease in activity from the peak frame to the last frame was calculated and expressed in percentage of the peak activity.
# Kinetic analysis: Regional total distribution volumes (VT, mL g^−1) were derived with kinetic analysis of the regional time-activity curves, using the arterial plasma concentrations as input function. […]
# [1] = BP = VT ROI − VT CER, baboons, mean ± SD of four experiments
# [2] = Mean ± SD of four experiments in two baboons
# [3] = baboons, mean ± SD of four experiments
# [4] = last scan 90 minutes, baboons, mean ± SD of four experiments
# [5] = one-tissue compartment model, baboons, mean ± SD of four experiments
compound,measurement,setting,value
[11CH3]Sc1ccc([C@H]2CN3CCC[C@H]3c3ccccc32)cc1 [[^11C]McN 5652],Binding potential Cingulate Cortex,[1],5.4 ± 0.8 mL/g
same,Binding potential Hippocampus,[1],9.5 ± 2.3 mL/g
same,Binding potential Midbrain,[1],25.9 ± 6.1 mL/g
same,Binding potential Occipital Cortex,[1],2.9 ± 1.6 mL/g
same,Binding potential Striatum,[1],17.6 ± 4.0 mL/g
same,Binding potential Temporal Cortex,[1],6.2 ± 1.8 mL/g
same,Binding potential Thalamus,[1],28.8 ± 6.9 mL/g
same,Equilibrium specific to non-specific partition coefficient (V3″) Cingulate Cortex,"Baboon A, single experiment",0.21 and 0.17
same,Equilibrium specific to non-specific partition coefficient (V3″) Hippocampus,"Baboon A, single experiment",0.41 and 0.29
same,Equilibrium specific to non-specific partition coefficient (V3″) Midbrain,"Baboon A, single experiment",1.16 and 0.78
same,Equilibrium specific to non-specific partition coefficient (V3″) Occipital Cortex,"Baboon A, single experiment",0.13 and 0.18
same,Equilibrium specific to non-specific partition coefficient (V3″) Striatum,"Baboon A, single experiment",0.81 and 0.49
same,Equilibrium specific to non-specific partition coefficient (V3″) Temporal Cortex,"Baboon A, single experiment",0.34 and 0.23
same,Equilibrium specific to non-specific partition coefficient (V3″) Thalamus,"Baboon A, single experiment",1.17 and 0.82
same,Equilibrium specific to non-specific partition coefficient (V3″) Cingulate Cortex,"Baboon B, single experiment",0.20
same,Equilibrium specific to non-specific partition coefficient (V3″) Hippocampus,"Baboon B, single experiment",0.38 and 0.30
same,Equilibrium specific to non-specific partition coefficient (V3″) Midbrain,"Baboon B, single experiment",1.00 and 0.80
same,Equilibrium specific to non-specific partition coefficient (V3″) Occipital Cortex,"Baboon B, single experiment",0.05 and 0.07
same,Equilibrium specific to non-specific partition coefficient (V3″) Striatum,"Baboon B, single experiment",0.66 and 0.60
same,Equilibrium specific to non-specific partition coefficient (V3″) Temporal Cortex,"Baboon B, single experiment",0.18 and 0.16
same,Equilibrium specific to non-specific partition coefficient (V3″) Thalamus,"Baboon B, single experiment",1.15 and 1.00
same,Equilibrium specific to non-specific partition coefficient (V3″) Cingulate Cortex,[2],0.19 and 0.19 ± 0.02
same,Equilibrium specific to non-specific partition coefficient (V3″) Hippocampus,[2],0.34 and 0.34 ± 0.06
same,Equilibrium specific to non-specific partition coefficient (V3″) Midbrain,[2],0.94 and 0.94 ± 0.18
same,Equilibrium specific to non-specific partition coefficient (V3″) Occipital Cortex,[2],0.11 and 0.11 ± 0.06
same,Equilibrium specific to non-specific partition coefficient (V3″) Striatum,[2],0.64 and 0.64 ± 0.13
same,Equilibrium specific to non-specific partition coefficient (V3″) Temporal Cortex,[2],0.23 and 0.23 ± 0.08
same,Equilibrium specific to non-specific partition coefficient (V3″) Thalamus,[2],1.04 and 1.04 ± 0.16
same,"K1, average of all regions and all animals",baboons,0.93 ± 0.18 mL/g/min
same,"VT, average of all regions and all animals",baboons,39.7 ± 11.8 mL/g
same,"k2, average of all regions and all animals",baboons,0.025 ± 0.008 min⁻¹
same,Mean regional peak uptake time,"baboons, mean of all regions",28 ± 12 min
same,Mean regional wash-out (% decrease between peak time and last scan),"baboons, mean of all regions",24±13%
same,Regional uptake peak time Cerebellum,[3],15 ± 3 min
same,Regional uptake peak time Cingulate Cortex,[3],17 ± 3 min
same,Regional uptake peak time Hippocampus,[3],36 ± 8 min
same,Regional uptake peak time Midbrain,[3],39 ± 13 min
same,Regional uptake peak time Occipital Cortex,[3],17 ± 3 min
same,Regional uptake peak time Striatum,[3],34 ± 10 min
same,Regional uptake peak time Temporal Cortex,[3],27 ± 7 min
same,Regional uptake peak time Thalamus,[3],41 ± 6 min
same,Total brain uptake at 45 min,"baboons, region encompassing the entire brain",0.016±0.002 % ID g^−1
same,"Regional activity wash-out: % decrease from peak to last scan, Cerebellum",[4],44 ± 6%
same,"Regional activity wash-out: % decrease from peak to last scan, Cingulate Cortex",[4],34 ± 3%
same,"Regional activity wash-out: % decrease from peak to last scan, Hippocampus",[4],16 ± 3%
same,"Regional activity wash-out: % decrease from peak to last scan, Midbrain",[4],8 ± 5%
same,"Regional activity wash-out: % decrease from peak to last scan, Occipital Cortex",[4],34 ± 3%
same,"Regional activity wash-out: % decrease from peak to last scan, Striatum",[4],18 ± 7%
same,"Regional activity wash-out: % decrease from peak to last scan, Temporal Cortex",[4],24 ± 6%
same,"Regional activity wash-out: % decrease from peak to last scan, Thalamus",[4],12 ± 4%
same,K1 Cerebellum,[5],1.05 ± 0.20 mL/g/min
same,K1 Cingulate Cortex,[5],1.01 ± 0.24 mL/g/min
same,K1 Hippocampus,[5],0.74 ± 0.12 mL/g/min
same,K1 Midbrain,[5],0.92 ± 0.12 mL/g/min
same,K1 Occipital Cortex,[5],0.95 ± 0.18 mL/g/min
same,K1 Striatum,[5],0.95 ± 0.12 mL/g/min
same,K1 Temporal Cortex,[5],0.83 ± 0.19 mL/g/min
same,K1 Thalamus,[5],1.03 ± 0.15 mL/g/min
same,K2 Cerebellum,[5],0.038 ± 0.007 min⁻¹
same,K2 Cingulate Cortex,[5],0.031 ± 0.007 min⁻¹
same,K2 Hippocampus,[5],0.020 ± 0.003 min⁻¹
same,K2 Midbrain,[5],0.017 ± 0.003 min⁻¹
same,K2 Occipital Cortex,[5],0.031 ± 0.006 min⁻¹
same,K2 Striatum,[5],0.021 ± 0.003 min⁻¹
same,K2 Temporal Cortex,[5],0.025 ± 0.006 min⁻¹
same,K2 Thalamus,[5],0.019 ± 0.003 min⁻¹
same,"VT Cerebellum (VT CER, nonspecific distribution volume)",[5],27.7 ± 4.0 mL/g
same,VT Cingulate Cortex,[5],33.1 ± 4.7 mL/g
same,VT Hippocampus,[5],37.2 ± 5.9 mL/g
same,VT Midbrain,[5],53.6 ± 9.3 mL/g
same,VT Occipital Cortex,[5],30.6 ± 3.9 mL/g
same,VT Striatum,[5],45.3 ± 7.0 mL/g
same,VT Temporal Cortex,[5],33.9 ± 4.2 mL/g
same,VT Thalamus,[5],56.5 ± 10.3 mL/g
